The values that follow come from US6528096B1, “Carrier mixed with additives having lubricant properties for preparing powdery pharmaceutical compositions for inhalation” (Chiesi Farmaceutical S.p.A., priority 1999, dated 2003).

Data set [1] can be described thus: Water contact angle and degree of molecular surface coating of carrier. It is filed as physicochemical. To be noted: single component, Table 6 footnote. Here is the method: Advantageously, the carrier particles and the lubricant particles are mixed until the degree of molecular surface coating is more than 10% as determined by water contact angle measurement. Preferably, carrier particles and lubricant particles made of magnesium stearate are mixed until the water contact angle of the ‘coated’ carrier particles is more than 36° corresponding to more than 10% degree of molecular surface coating; more preferably, the water contact angle should be more than 50° corresponding to more than 23% decree of molecular surface coating.
40.528 kg (99.75% w/w) of α-Lactose monohydrate fraction 90-150 μm and 0.102 kg (0.25% w/w) of magnesium stearate were mixed in a Turbula mixer T 100 at 16 r.p.m. for several hours. At different mixing times samples were withdrawn and tested for uniformity of distribution of magnesium stearate, particle size, water contact angle and degree of molecular surface coating calculated according to lassie et al. (Transactions of the Faraday Society 40; 546, 1944). To validate the process, three batches (40 kg) of the carrier were prepared.

The subject of a further data set is dog. Nature of the data set: Toxicity studies in dog. The class given is in vivo.
Another data set deals with healthy volunteers. Nature of the data set: Acute tolerance trial in healthy volunteers. It is filed as in vivo, humans. To be noted: single dose 25.72 mg lactose and 0.065 mg magnesium stearate via Pulvinal inhaler. The method, then: Furthermore, acute and long term tolerance trials were carried out to evaluate toxicity of magnesium stearate in humans.
In the former, 18 healthy volunteers, included in a double blind randomised controlled cross-over design study, received a single dose containing 25.72 mg of lactose and 0.065 mg of magnesium stearate via Pulvinal® inhaler. The introduction of 0.25% magnesium stearate in powdery pharmaceutical formulation resulted to be safe.

With `O.OC[C@H]1O[C@@H](O[C@H]2[C@H](O)[C@@H](O)[C@@H](O)O[C@@H]2CO)[C@H](O)[C@@H](O)[C@H]1O` [α-Lactose monohydrate], the water contact angle entry in data set [1] was “α-Lactose monohydrate water contact angle 12°”.
As for Magnesium stearate, the “Safety of the respirable amount” value with dog is reported as “safe”. Further, the “Safety, acute tolerance” value in the data set with healthy volunteers is reported as “safe”. For the same compound, in data set [1], the water contact angle result is recorded as “Magnesium stearate water contact angle 118°”.
